Article PMC11079024, “Identification of a family of species-selective complex I inhibitors as potential anthelmintics” (Nature Communications, 2024)
Values joined by “and” are separate entries in the source; they are usually repeats but may differ in a detail not shown here. Identical values can stand only once. Like-named read-outs stand apart in the source and are kept apart here.

System: HEK293 cells
[1] = dose 0.4 µM, individual replicate (Rep)
[2] = dose 0.8 µM, individual replicate (Rep)
[3] = dose 6.3 µM, individual replicate (Rep)

| Compound | HEK293 viability | HEK293 viability (dose 0.4 µM, Mean of replicates) | HEK293 viability [1] | HEK293 viability (dose 0.8 µM, Mean of replicates) | HEK293 viability [2] | HEK293 viability (dose 6.3 µM, Mean of replicates) | HEK293 viability [3] | CC50 (read-out: HEK293 Cell Viability Assay LC50, 2 days exposure) | HEK293 viability (dose 3.1 µM, individual replicate (Rep)) | HEK293 viability (dose 12.5 µM, individual replicate (Rep)) | HEK293 viability (dose 25 µM, individual replicate (Rep)) | HEK293 viability (dose 50 µM, individual replicate (Rep)) |
| --- | --- | --- | --- | --- | --- | --- | --- | --- | --- | --- | --- | --- |
| O=C(NCCc1ccc(Cl)cc1)c1ccccc1C(F)(F)F [Wact-11] | 0.997 | 0.929 | 0.886 and 0.902 | 0.971 | 0.916 | 0.986 | 0.982 and 0.975 | > 50 µM |  |  |  |  |
| C=C(C)[C@H]1Cc2c(ccc3c2O[C@@H]2COc4cc(OC)c(OC)cc4[C@@H]2C3=O)O1 [Rotenone, reference compound] |  |  | 0.393 and 0.409 and 0.194 |  | 0.340 and 0.322 |  | 0.380 and 0.286 |  | 0.488 and 0.455 | 0.265 | 0.242 and 0.200 | 0.196 and 0.203 |
